Reference: patent publication US9302999B2, “Substituted triazoles as herbicides” (E. I. DU PONT DE NEMOURS AND COMPANY, priority 2012, dated 2016)

Legend:
[1] = system: field bindweed (Convolvulus arvensis); test: Test F pre-/postemergence: field bindweed; format: in vivo
How it was run: (§1)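 Visual response scores, 0 meaning no effect and 100 complete control, were assigned against untreated controls 14 to 21 days after treatment. Test chemicals in a surfactant-containing non-phytotoxic solvent were applied preemergence to seeded silt loam soil or postemergence to 2–18 cm plants in peat-based medium.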

Waterhemp = test: Test C preemergence: waterhemp; format: in vivo, Amaranthus rudis; details: scale 0 to 100, 0 no effect, 100 complete control
[2] = system: crabgrass, large (large crabgrass, Digitaria sanguinalis); test: Test F pre-/postemergence: crabgrass, large; format: in vivo; details: Preemergence
How it was run: as §1

[3] = system: lambsquarters (Chenopodium album); test: Test F pre-/postemergence: lambsquarters; format: in vivo; details: Preemergence
How it was run: as §1

[4] = system: dayflower, VA (Virginia (VA) dayflower, Commelina virginica); test: Test F pre-/postemergence: dayflower, VA; format: in vivo
How it was run: as §1

[5] = system: canarygrass (Phalaris minor); test: Test D pre-/postemergence: canarygrass; format: in vivo
How it was run: (§2)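 Visual control ratings (0–100) after 14–21 days, controlled environment. Preemergence on silt loam; postemergence on 2–18 cm plants.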

[6] = system: wheat, spring (spring wheat, Triticum aestivum); test: Test D pre-/postemergence: wheat, spring; format: in vivo
How it was run: as §2

[7] = system: chamomile (scentless chamomile, Matricaria inodora); test: Test D pre-/postemergence: chamomile; format: in vivo
How it was run: as §2

[8] = system: field poppy (Papaver rhoeas); test: Test D pre-/postemergence: field poppy; format: in vivo
How it was run: as §2

[9] = system: bromegrass, downy (downy bromegrass, Bromus tectorum); test: Test D pre-/postemergence: bromegrass, downy; format: in vivo
How it was run: as §2

[10] = Preemergence, 16 g ai/ha, scale 0 to 100, 0 no effect, 100 complete control
[11] = Preemergence, 31 g ai/ha, scale 0 to 100, 0 no effect, 100 complete control
[12] = Preemergence, 62 g ai/ha, scale 0 to 100
[13] = Preemergence, 125 g ai/ha, scale 0 to 100
[14] = Preemergence, 250 g ai/ha, scale 0 to 100
[15] = 16 g ai/ha, scale 0 to 100, 0 no effect, 100 complete control
[16] = 31 g ai/ha, scale 0 to 100, 0 no effect, 100 complete control
[17] = Postemergence, 31 g ai/ha, scale 0 to 100 (0 no effect, 100 complete control)
[18] = Postemergence, 62 g ai/ha, scale 0 to 100 (0 no effect, 100 complete control)
[19] = Postemergence, 125 g ai/ha, scale 0 to 100, 0 no effect, 100 complete control
[20] = Postemergence, 16 g ai/ha, scale 0 to 100
[21] = Postemergence, 8 g ai/ha, scale 0 to 100
[22] = Postemergence, 31 g ai/ha, scale 0 to 100
[23] = Postemergence, 62 g ai/ha, scale 0 to 100
[24] = Postemergence, 125 g ai/ha, scale 0 to 100
[25] = Preemergence, 8 g ai/ha, scale 0 to 100, 0 no effect, 100 complete control

## CCc1nn(-c2ccc(F)cc2)nc1Cc1ccnc(C(F)(F)F)c1 [Compound 154]
[1]; [10]
  Plant response rating, Field Bindweed: 0
[1]; [11]
  Plant response rating, Field Bindweed: 0
[1]; [12]
  Plant response rating, Field Bindweed: 5
[1]; [13]
  Plant response rating, Field Bindweed: 35
[1]; [14]
  Plant response rating, Field Bindweed: 95
Waterhemp; 125 g ai/ha
  Plant response rating, Waterhemp: 100
[2]; [15]
  Plant response rating, Crabgrass, Large: 50
[2]; [16]
  Plant response rating, Crabgrass, Large: 98
[2]; 62 g ai/ha, scale 0 to 100
  Plant response rating, Crabgrass, Large: 100
[2]; 125 g ai/ha, scale 0 to 100
  Plant response rating, Crabgrass, Large: 100
[2]; 250 g ai/ha, scale 0 to 100
  Plant response rating, Crabgrass, Large: 100
[3]; [15]
  Plant response rating, Lambsquarters: 0
[3]; [16]
  Plant response rating, Lambsquarters: 30
[3]; 62 g ai/ha, scale 0 to 100
  Plant response rating, Lambsquarters: 75
[3]; 125 g ai/ha, scale 0 to 100
  Plant response rating, Lambsquarters: 98
[3]; 250 g ai/ha, scale 0 to 100
  Plant response rating, Lambsquarters: 98
[4]; [10]
  Plant response rating, Dayflower, VA: 0
[4]; [11]
  Plant response rating, Dayflower, VA: 0
[4]; [12]
  Plant response rating, Dayflower, VA: 25
[4]; [13]
  Plant response rating, Dayflower, VA: 70
[4]; [14]
  Plant response rating, Dayflower, VA: 90

## Cc1nn(-c2ccc(F)c(C(F)(F)F)c2)nc1Cc1ccnc(C(F)(F)F)c1 [Compound 156]
[5]; [17]
  Plant response rating: Canarygrass: 30
[5]; [18]
  Plant response rating: Canarygrass: 65
[5]; [19]
  Plant response rating: Canarygrass: 80
[5]; [20]
  Plant response rating, Canarygrass: 15
[5]; [10]
  Plant response rating, Canarygrass: 15
[5]; [11]
  Plant response rating, Canarygrass: 70
[5]; [12]
  Plant response rating, Canarygrass: 100
[5]; [13]
  Plant response rating, Canarygrass: 100
Waterhemp; 125 g ai/ha
  Plant response rating, Waterhemp: 100
[6]; [17]
  Plant response rating: Wheat, Spring: 15
[6]; [18]
  Plant response rating: Wheat, Spring: 20
[6]; [19]
  Plant response rating: Wheat, Spring: 25
[6]; [20]
  Plant response rating, Wheat, Spring: 10
[6]; [10]
  Plant response rating, Wheat, Spring: 0
[6]; [11]
  Plant response rating, Wheat, Spring: 0
[6]; [12]
  Plant response rating, Wheat, Spring: 0
[6]; [13]
  Plant response rating, Wheat, Spring: 5
[7]; [17]
  Plant response rating: Chamomile: 70
[7]; [18]
  Plant response rating: Chamomile: 75
[7]; [19]
  Plant response rating: Chamomile: 100
[7]; [20]
  Plant response rating, Chamomile: 50
[7]; [10]
  Plant response rating, Chamomile: 10
[7]; [11]
  Plant response rating, Chamomile: 55
[7]; [12]
  Plant response rating, Chamomile: 100
[7]; [13]
  Plant response rating, Chamomile: 100
[8]; [17]
  Plant response rating: Field Poppy: 100
[8]; [18]
  Plant response rating: Field Poppy: 100
[8]; [19]
  Plant response rating: Field Poppy: 100
[8]; [20]
  Plant response rating, Field Poppy: 85
[8]; [10]
  Plant response rating, Field Poppy: 85
[8]; [11]
  Plant response rating, Field Poppy: 100
[8]; [12]
  Plant response rating, Field Poppy: 95
[8]; [13]
  Plant response rating, Field Poppy: 100
[9]; [17]
  Plant response rating: Bromegrass, Downy: 10
[9]; [18]
  Plant response rating: Bromegrass, Downy: 15
[9]; [19]
  Plant response rating: Bromegrass, Downy: 35
[9]; [20]
  Plant response rating, Bromegrass, Downy: 10
[9]; [10]
  Plant response rating, Bromegrass, Downy: 0
[9]; [11]
  Plant response rating, Bromegrass, Downy: 5
[9]; [12]
  Plant response rating, Bromegrass, Downy: 20
[9]; [13]
  Plant response rating, Bromegrass, Downy: 95

## FCc1nn(-c2ccc(F)cc2)nc1Oc1ccnc(C(F)(F)F)c1 [Compound 160]
Waterhemp; 125 g ai/ha
  Plant response rating, Waterhemp: 100

## CCOCc1nn(-c2ccc(F)cc2)nc1Oc1ccnc(C(F)(F)F)c1 [Compound 163]
Waterhemp; 125 g ai/ha
  Plant response rating, Waterhemp: 100

## CCOc1nn(-c2ccc(Cl)cc2)nc1Cc1ccnc(C(F)(F)F)c1 [Compound 188]
Waterhemp; 125 g ai/ha
  Plant response rating, Waterhemp: 100
Waterhemp; 250 g ai/ha
  Plant response rating, Waterhemp: 100

## CCOc1nn(-c2ccc(F)cc2)nc1Cc1ccnc(C(F)(F)F)c1 [Compound 196, 4-[[5-ethoxy-2-(4-fluorophenyl)-2H-1,2,3-triazol-4-yl]methyl]-2-(trifluoromethyl)pyridine]
[5]; [17]
  Plant response rating: Canarygrass: 70
[5]; [18]
  Plant response rating: Canarygrass: 80
[5]; [19]
  Plant response rating: Canarygrass: 85
[5]; [20]
  Plant response rating, Canarygrass: 30
[5]; [10]
  Plant response rating, Canarygrass: 40
[5]; [11]
  Plant response rating, Canarygrass: 100
[5]; [12]
  Plant response rating, Canarygrass: 100
[5]; [13]
  Plant response rating, Canarygrass: 100
[1]; [21]
  Plant response rating, Field Bindweed: 50
[1]; [20]
  Plant response rating, Field Bindweed: 60
[1]; [22]
  Plant response rating, Field Bindweed: 70
[1]; [23]
  Plant response rating, Field Bindweed: 75
[1]; [24]
  Plant response rating, Field Bindweed: 75
[1]; [25]
  Plant response rating, Field Bindweed: 0
[1]; [10]
  Plant response rating, Field Bindweed: 0
[1]; [11]
  Plant response rating, Field Bindweed: 25
[1]; [13]
  Plant response rating, Field Bindweed: 65
[6]; [17]
  Plant response rating: Wheat, Spring: 25
[6]; [18]
  Plant response rating: Wheat, Spring: 35
[6]; [19]
  Plant response rating: Wheat, Spring: 35
[6]; [20]
  Plant response rating, Wheat, Spring: 15
[6]; [10]
  Plant response rating, Wheat, Spring: 0
[6]; [11]
  Plant response rating, Wheat, Spring: 5
[6]; [12]
  Plant response rating, Wheat, Spring: 5
[6]; [13]
  Plant response rating, Wheat, Spring: 25
[7]; [17]
  Plant response rating: Chamomile: 70
[7]; [18]
  Plant response rating: Chamomile: 75
[7]; [19]
  Plant response rating: Chamomile: 85
[7]; [20]
  Plant response rating, Chamomile: 60
[7]; [10]
  Plant response rating, Chamomile: 55
[7]; [11]
  Plant response rating, Chamomile: 85
[7]; [12]
  Plant response rating, Chamomile: 100
[7]; [13]
  Plant response rating, Chamomile: 100
[2]; [15]
  Plant response rating, Crabgrass, Large: 75
[2]; [16]
  Plant response rating, Crabgrass, Large: 100
[2]; 62 g ai/ha, scale 0 to 100
  Plant response rating, Crabgrass, Large: 100
[2]; 125 g ai/ha, scale 0 to 100
  Plant response rating, Crabgrass, Large: 100
[8]; [17]
  Plant response rating: Field Poppy: 100
[8]; [18]
  Plant response rating: Field Poppy: 100
[8]; [19]
  Plant response rating: Field Poppy: 100
[8]; [20]
  Plant response rating, Field Poppy: 100
[8]; [10]
  Plant response rating, Field Poppy: 95
[8]; [11]
  Plant response rating, Field Poppy: 90
[8]; [12]
  Plant response rating, Field Poppy: 100
[8]; [13]
  Plant response rating, Field Poppy: 100
[9]; [17]
  Plant response rating: Bromegrass, Downy: 35
[9]; [18]
  Plant response rating: Bromegrass, Downy: 50
[9]; [19]
  Plant response rating: Bromegrass, Downy: 65
[9]; [20]
  Plant response rating, Bromegrass, Downy: 15
[9]; [10]
  Plant response rating, Bromegrass, Downy: 5
[9]; [11]
  Plant response rating, Bromegrass, Downy: 15
[9]; [12]
  Plant response rating, Bromegrass, Downy: 70
[9]; [13]
  Plant response rating, Bromegrass, Downy: 90
[3]; 8 g ai/ha, scale 0 to 100, 0 no effect, 100 complete control
  Plant response rating, Lambsquarters: 60
[3]; [15]
  Plant response rating, Lambsquarters: 70
[3]; [16]
  Plant response rating, Lambsquarters: 80
[3]; 62 g ai/ha, scale 0 to 100
  Plant response rating, Lambsquarters: 95
[3]; 125 g ai/ha, scale 0 to 100
  Plant response rating, Lambsquarters: 98
[4]; [21]
  Plant response rating, Dayflower, VA: 30
[4]; [20]
  Plant response rating, Dayflower, VA: 50
[4]; [22]
  Plant response rating, Dayflower, VA: 60
[4]; [23]
  Plant response rating, Dayflower, VA: 60
[4]; [24]
  Plant response rating, Dayflower, VA: 70
[4]; [25]
  Plant response rating, Dayflower, VA: 5
[4]; [10]
  Plant response rating, Dayflower, VA: 35
[4]; [11]
  Plant response rating, Dayflower, VA: 35
[4]; [12]
  Plant response rating, Dayflower, VA: 50
[4]; [13]
  Plant response rating, Dayflower, VA: 65
